Measured values: US20070275984A1, “Novel Thieno-Pyridine and Thieno-Pyrimidine Derivatives and Their Use as Positive Allosteric Modulators of Mglur2-Receptors” (JANSSEN PHARMACEUTICA N.V., priority 2004, published 2007)

| Structure (SMILES) | melting point [°C] |
| --- | --- |
| COc1ccc(CCN(C)c2nc(C)nc3sc(C)cc23)cc1 [Compound 51, N-(4-methoxyphenethyl)-N,2,6-trimethylthieno[2,3-d]pyrimidin-4-amine] | 81 |
| COc1cccc(CCCNc2nc(C)nc3sc(C)cc23)c1 [Compound 55, N-(3-(3-methoxyphenyl)propyl)-2,6-dimethylthieno[2,3-d]pyrimidin-4-amine] | 122 |
| Cc1nc(NCc2cccc(Cl)c2)c2cc(C)sc2n1 [Compound 10, N-(3-chlorobenzyl)-2,6-dimethylthieno[2,3-d]pyrimidin-4-amine] | 136.5 |
| CCOc1ccc(CCNc2nc(C)nc3sc(C)cc23)cc1 [Compound 30, N-(4-ethoxyphenethyl)-2,6-dimethylthieno[2,3-d]pyrimidin-4-amine] | 101 to 103 |
| Cc1nc(NCCc2ccc(O)cc2)c2cc(C)sc2n1 [Compound 23, 4-(2-(2,6-dimethylthieno[2,3-d]pyrimidin-4-ylamino)ethyl)phenol] | 166 |
| CCc1nc(NCCc2ccc(OC)c(OC)c2)c2cc(C)sc2n1 [Compound 34, N-(3,4-dimethoxyphenethyl)-2-ethyl-6-methylthieno[2,3-d]pyrimidin-4-amine] | 105 |
| COc1cc(CCNc2nc(C)nc3sc(C)cc23)ccc1O [Compound 31, 4-(2-(2,6-dimethylthieno[2,3-d]pyrimidin-4-ylamino)ethyl)-2-methoxyphenol] | 135 |
| Cc1nc(NCCc2cccc(C(F)(F)F)c2)c2cc(C)sc2n1 [Compound 21, N-(3-(trifluoromethyl)phenethyl)-2,6-dimethylthieno[2,3-d]pyrimidin-4-amine] | 98.2 |
| Cc1nc(NCC(=O)c2ccccc2)c2cc(C)sc2n1 [Compound 12, 2-(2,6-dimethylthieno[2,3-d]pyrimidin-4-ylamino)-1-phenylethanone] | 159 |
| Cc1nc(NCCc2cccc(O)c2)c2cc(C)sc2n1 [Compound 22, N-(3-hydroxyphenethyl)-2,6-dimethylthieno[2,3-d]pyrimidin-4-amine] | 162.5 |
| COc1cccc(CCNc2nc(C)nc3sc(C)cc23)c1 [Compound 25, N-(3-methoxyphenethyl)-2,6-dimethylthieno[2,3-d]pyrimidin-4-amine] | 139 |
| COc1ccc(CNc2nc(C)nc3sc(C)cc23)cc1OC [Compound 9, N-(3,4-dimethoxybenzyl)-2,6-dimethylthieno[2,3-d]pyrimidin-4-amine] | 142 |
| COCCCNc1nc(C)nc2sc(C)cc12 [Compound 57, N-(3-methoxypropyl)-2,6-dimethylthieno[2,3-d]pyrimidin-4-amine] | 90 |
| COc1cccc(CNc2nc(C)nc3sc(C)cc23)c1 [Compound 6, N-(3-methoxybenzyl)-2,6-dimethylthieno[2,3-d]pyrimidin-4-amine] | 97 |
| Cc1ccc(CCNc2nc(C)nc3sc(C)cc23)cc1 [Compound 19, N-(4-methylphenethyl)-2,6-dimethylthieno[2,3-d]pyrimidin-4-amine] | 115 |
| Cc1nc(NCCc2ccc(S(C)(=O)=O)cc2)c2cc(C)sc2n1 [Compound 44, N-(4-(methylsulfonyl)phenethyl)-2,6-dimethylthieno[2,3-d]pyrimidin-4-amine] | 176 to 179.5 |
| COc1ccc(CCNc2ncnc3sc(C)cc23)cc1 [Compound 27, N-(4-methoxyphenethyl)-6-methylthieno[2,3-d]pyrimidin-4-amine] | 199 |
| COc1ccc(CCCNc2nc(C)nc3sc(C)cc23)cc1 [Compound 56, N-(3-(4-methoxyphenyl)propyl)-2,6-dimethylthieno[2,3-d]pyrimidin-4-amine] | 120 |
| Cc1nc(NCCOc2ccccc2)c2cc(C)sc2n1 [Compound 47, 2,6-dimethyl-N-(2-phenoxyethyl)thieno[2,3-d]pyrimidin-4-amine] | 156.5 |
| Cc1nc(NCCc2ccccn2)c2cc(C)sc2n1 [Compound 48, 2,6-dimethyl-N-(2-(pyridin-2-yl)ethyl)thieno[2,3-d]pyrimidin-4-amine] | 139 |
| CCc1nc(NCc2cccc(OC)c2)c2cc(C)sc2n1 [Compound 7, N-(3-methoxybenzyl)-2-ethyl-6-methylthieno[2,3-d]pyrimidin-4-amine] | 108.4 |
| COc1cc(CCNc2nc(C)nc3sc(C)cc23)cc(OC)c1 [Compound 35, N-(3,5-dimethoxyphenethyl)-2,6-dimethylthieno[2,3-d]pyrimidin-4-amine] | 106 to 107 |
| COc1ccc(CNc2nc(C)nc3sc(C)cc23)cc1 [Compound 8, N-(4-methoxybenzyl)-2,6-dimethylthieno[2,3-d]pyrimidin-4-amine] | 127.5 |
| COc1ccc(CCNc2nc(C)nc3sc(C)cc23)cc1OC [Compound 33, N-(3,4-dimethoxyphenethyl)-2,6-dimethylthieno[2,3-d]pyrimidin-4-amine] | 85 |
| COc1cccc(CNc2nc(C)nc3sc(Cc4ccccc4)cc23)c1 [Compound 60, N-(3-methoxybenzyl)-6-benzyl-2-methylthieno[2,3-d]pyrimidin-4-amine] | 107 |

The remaining lines, values ahead:

| melting point [°C] | Structure (SMILES) |
| --- | --- |
| 92 | CCCc1cc2c(NCCc3ccc(OC)cc3)nc(OC)nc2s1 [Compound 86, N-(4-methoxyphenethyl)-2-methoxy-6-propylthieno[2,3-d]pyrimidin-4-amine] |
| 128.5 | CCCc1cc2c(NCCc3ccc(OC)c(OC)c3)ncnc2s1 [Compound 87, N-(3,4-dimethoxyphenethyl)-6-propylthieno[2,3-d]pyrimidin-4-amine] |
| 81 | CCc1cc2c(NCCc3cccc(OC)c3)ncnc2s1 [Compound 69, N-(3-methoxyphenethyl)-6-ethylthieno[2,3-d]pyrimidin-4-amine] |
| 104 | CCc1cc2c(NCc3ccc(F)cc3)ncnc2s1 [Compound 66, N-(4-fluorobenzyl)-6-ethylthieno[2,3-d]pyrimidin-4-amine] |
| 118 | CCc1cc2c(NCCc3ccccc3)ncnc2s1 [Compound 68, 6-ethyl-N-phenethylthieno[2,3-d]pyrimidin-4-amine] |
| 79 | CCCc1cc2c(NCCc3ccc(O)cc3)nc(OC)nc2s1 [Compound 83, 4-(2-(2-methoxy-6-propylthieno[2,3-d]pyrimidin-4-ylamino)ethyl)phenol] |
| 133 | CCc1cc2c(NCc3ccccc3)ncnc2s1 [Compound 64, N-benzyl-6-ethylthieno[2,3-d]pyrimidin-4-amine] |
| 162 | CCCc1cc2c(NCCc3ccccc3)nc(NC)nc2s1 [Compound 81, N2-methyl-N4-phenethyl-6-propylthieno[2,3-d]pyrimidine-2,4-diamine] |
| 68 | CCCc1cc2c(NCCNc3ccccc3)ncnc2s1 [Compound 89, N-(2-(phenylamino)ethyl)-6-propylthieno[2,3-d]pyrimidin-4-amine] |
| 108.5 | COc1ccc(CCNc2ncnc3sc(C(C)C)cc23)cc1 [Compound 93, N-(4-methoxyphenethyl)-6-isopropylthieno[2,3-d]pyrimidin-4-amine] |
| 99 | CCc1cc2c(NCc3cccc(OC)c3)ncnc2s1 [Compound 65, N-(3-methoxybenzyl)-6-ethylthieno[2,3-d]pyrimidin-4-amine] |
